Test results taken from US9243036B2, “Anti-microbial activity of synthetic peptides” (THE UNITED STATES OF AMERICA, as represented by the …, priority 2012, dated 2016).
Residues, ends and D or L forms follow the SMILES beside them.

Assays:
Format in all cases: cell-based
B. cereus = experiment: Anti-bacterial activity in spiked plasma; settings: even at 50 μg/ml
Experimental: (§1) The anti-bacterial activity of the peptide in the presence of homologous plasma and platelets were assessed. Platelet Concentrates (PCs) in bags were obtained and stored at room temperature as described earlier (Mohan, K. V. et al., (2010) Transfusion 50, 166-173). Plasma was isolated from the PC bag by collecting 25 ml of PCs and subjecting the sample to a low speed centrifugation step to separate PLT-rich plasma from plasma. For assays log phase cultures of bacteria grown in Luria-Bertani (LB) broth were centrifuged at 3000×g and suspended in 1×PBS pH7.4. Bacterial titers were estimated by measuring the optical density (OD) and microscopy. Approximately 10^5 CFU/ml of each bacterial strain was spiked into 0.1 ml of plasma or platelets and incubated with peptide at concentrations ranging from 50 to 0 μg/ml. Incubation was carried out at room temperature for 2 h on a shaker. At the end of 2-h exposure period, a fixed volume of the suspension was plated on NA plates, and incubating at 37° C. for 18 to 24 h. Bactericidal activity was measured by log-reduction by viable bacteria.

E. coli [1] = experiment: Anti-bacterial activity in spiked plasma; settings: 2 h
Experimental: as §1

K pneumoniae = experiment: Anti-bacterial activity in spiked plasma; settings: 2 h
Experimental: as §1

P. aeruginosa [2] = experiment: Anti-bacterial activity in spiked plasma; settings: 2 h
Experimental: as §1

S. aureus = experiment: Anti-bacterial activity in spiked plasma; settings: even at 50 μg/ml
Experimental: as §1

S. epidermidis = experiment: Anti-bacterial activity in spiked plasma; settings: even at 50 μg/ml
Experimental: as §1

[3] = tested on: chicken red blood cells (ch-RBCs)
Experimental: The ability of EC5 to induce hemolysis of chicken red blood cells (ch-RBCs) was assessed as previously described (Pathak, S. and Chauhan, V. S. (2011) Antimicrob. Agents Chemother. 55, 2178-2188). Red blood cells were harvested and washed with phosphate-buffered saline (PBS). 1% (vol/vol) suspension was made with PBS. 100 μl and 50 μl of this RBC suspension were transferred to 96-well microtiter plates. Two-fold serial dilutions of the peptide samples were prepared and added to the RBCs. The reaction mixture was incubated at 37° C. for 24 h in microtiter plates. Results were visually determined.
The hemolytic activity of EC5 against chRBCs was determined as a measure of peptide toxicity toward higher eukaryotic cells (Yount, N. Y., et al., (2011) PLoS. One. 6, e26727; Tachi, T., et al., Biochemistry 41, 10723-10731). MHC is the maximal peptide concentration that produces no hemolysis after 24 h of incubation at 37° C.

E. coli [4] = experiment: Cytoplasmic membrane depolarization assay (diSC3-5) with parallel CFU plating; settings: EC5 at 8 μg/ml and 16 μg/ml
Experimental: (§2) Membrane depolarization activity (Δψ) of the peptide was determined with intact E. coli and P. aeruginosa cells and the membrane potential-sensitive fluorescent dye, 3,3′-dipropylthiadicarbocyanine Iodide (diSC (3)5) (Invitrogen, Oregon), according to described methods (Sims, P. J., et al (1974) Biochemistry 13, 3315-3330). Briefly, bacterial cells of mid-logarithmic phase were harvested by centrifugation and washed twice with HEPES buffer (5 mM HEPES, 5 mM glucose, pH 7.6). The cells were suspended in the same buffer to an OD of 0.05. The cell suspension was incubated with […] diSC (3)5 until maximal uptake of the dye. 100 mM KCl was added to equilibrate the cytoplasmic and external potassium ion concentration of peptide, and fluorescence was monitored at an excitation wavelength of 622 nm and an emission wavelength of 670 nm. Polymyxin B was used as a positive control and S. aureus cells were used as negative control. Simultaneously the cells were plated on NA plates and incubated at 37° C. overnight to assess the number of CFU.
(§3) Cytoplasmic depolarization assay(Δψ) was performed using the membrane potential sensitive dye 3,3′-dipropylthiadicarbocyanine iodide (diSC3-5) (Zang, L. et al., (2001) J. Biol. Chem. 276, 35714-35722). This dye can cross the outer membrane of the bacterial cell and become concentrated in the cytoplasmic membrane and thereby it self-quenches its own fluorescence. Upon addition of a membrane-permeabilizing agent the dye is released with consequent increase in the fluorescence. EC5 at 8 μg/ml and 16 μg/ml caused rapid depolarization of the cytoplasmic membrane in both E. coli and P. aeruginosa resulting in the release of diSC3-5 within 5 min (FIG. 9C). […] However Polymyxin B even at its MIC of 0.5 μg/ml caused slow release of diSC3-5 when compared to EC5.

P. aeruginosa [5] = experiment: as above; settings: EC5 at 8 μg/ml and 16 μg/ml
Experimental: as §2, §3

E. coli [6] = experiment: ATP inhibition (BACTITER-GLO); settings: EC5 at lowest concentration of 3.125 μg/ml
Experimental: (§4) The effects of EC5 on ATP inhibition as a measure of metabolic activity of E. coli and P. aeruginosa cells was determined by using BACTITER-GLO™ assay kit (Promega) according to the manufacturer's protocol. The luminescent signal correlates with the number of viable microbial cells based on the amount of ATP present after the addition of different concentrations of the peptide. Polymyxin B was included as a positive control.
(§5) ATP inhibition as a measurement of microbial viability was measured using BacTiter-Glo kit ([…]). Intracellular ATP levels of E. coli and P. aeruginosa were examined after the addition of different concentrations of EC5 (FIG. 9D). ATP inhibition began 5 min after the addition of EC5 at lowest concentration of 3.125 μg/ml which was slightly lower than the MIC of 8 μg/ml for E. coli and P. aeruginosa.

P. aeruginosa [7] = experiment: ATP inhibition (BACTITER-GLO); settings: EC5 at lowest concentration of 3.125 μg/ml
Experimental: as §4, §5

CC[C@H](C)[C@H](NC(=O)[C@H](CCCCN)NC(=O)[C@H](CCCNC(=N)N)NC(=O)[C@H](Cc1ccccc1)NC(=O)[C@H](CC(C)C)NC(=O)[C@H](CC(C)C)NC(=O)[C@@H](N)CCCNC(=N)N)C(=O)N[C@@H](CCCNC(=N)N)C(=O)N[C@@H](CCCNC(=N)N)C(=O)N[C@@H](CC(C)C)C(=O)N[C@@H](CCCCN)C(=O)N[C@@H](CCCNC(=N)N)C(=O)O [EC5, RLLFRKIRRLKR] (H-RLLFRKIRRLKR-OH; N-terminus and C-terminus assumed)
reduction of B. cereus in plasma (B. cereus): failed to cause a significant reduction
reduction of E. coli in plasma (E. coli [1]; EC5 12.5 μg/ml): 3.5 log10
reduction of E. coli in plasma (E. coli [1]; EC5 25 μg/ml): 4.5 log10
bactericidal activity in homologous plasma, in words (E. coli [1]; EC5 50 μg/ml): inhibited
reduction of E. coli in plasma (E. coli [1]; EC5 50 μg/ml): around 5 log10 CFU/ml
reduction of K pneumoniae in plasma (K pneumoniae; EC5 25 μg/ml): around 1.5 log10
reduction of K pneumoniae in plasma (K pneumoniae; EC5 50 μg/ml): around 2.5 log10
reduction of P. aeruginosa in plasma (P. aeruginosa [2]; EC5 12.5 μg/ml): ~3 log10 CFU/ml
reduction of P. aeruginosa in plasma (P. aeruginosa [2]; EC5 25 μg/ml): around 4 log10 CFU/ml
bactericidal activity in homologous plasma, in words (P. aeruginosa [2]; EC5 50 μg/ml): inhibited
reduction of P. aeruginosa in plasma (P. aeruginosa [2]; EC5 50 μg/ml): around 5 log10 CFU/ml
reduction of S. aureus in plasma (S. aureus): failed to cause a significant reduction
reduction of S. epidermidis in plasma (S. epidermidis): failed to cause a significant reduction
therapeutic index (MIC versus concentrations inducing hemolysis) [3]: favorable
time to complete inhibition of CFU (E. coli [4]): ≤ 5 min
time to release of diSC3-5 (depolarization of the cytoplasmic membrane) (E. coli [4]): ≤ 5 min
time to complete inhibition of CFU (P. aeruginosa [5]): ≤ 5 min
time to release of diSC3-5 (depolarization of the cytoplasmic membrane) (P. aeruginosa [5]): ≤ 5 min
time at which ATP inhibition began (E. coli [6]): 5 min
time at which ATP inhibition began (P. aeruginosa [7]): 5 min
